Experimental data as given in US9452185B2, “Mesenchymal stem cells and supports for tissue regeneration, repair and reconstruction” (THE TEXAS A&M UNIVERSITY SYSTEM, priority 2009, dated 2016).

System: calvarial defects
Assay: Histology of 50-day calvaria (H&E, tetracycline tracing, blood vessels)
Format: in vivo, nude mice
Procedure: Histochemistry and immunocytochemistry. For β-catenin localization studies, hMSCs were stained with a cy-3 conjugated anti-β-catenin antibody and nuclei were counterstained with pico-green dye. Specimens were processed as paraffin blocks and 8 longitudinal sections were prepared, deparaffinized and rehydrated, then stained with hematoxylin and eosin. For immunocytochemistry, sections were probed with an anti-human β-2-microglobulin antibody. An upright fluorescent microscope fitted with a high performance camera (and image analysis software was employed for imaging. Tetracycline tracing of in vivo calcium deposition. The tetracycline was imaged using an upright fluorescent microscope fitted with a high performance camera and analyzed using software. Embedding, sectioning and mounting was carried out on non-decalcified material. Semi-quantitative blood vessel measurements. Calvaria were fixed, decalcified and sectioned in paraffin and stained with hematoxylin and eosin as described. Using NIS-Elements image analysis software, the surface area of blood vessels in a defined ROI was calculated and totaled. The values were expressed as the mean of total blood vessel area from 3 animals per group. […] Using NIS-Elements image analysis software, the surface area of blood vessels in the 2D ROI was calculated for each section and totaled. […]

## O=C(Nc1ccccc1)c1cc([N+](=O)[O-])ccc1Cl [GW9662, 2-chloro-5-nitro-N-phenyl-benzamide]
Day 50
  new bone formation, histology: new bone formation was detected
Day 50, blood vessels
  ability of MSCs to initiate angiogenesis at trauma sites: had not affected
